Converted amounts (≈) assume the structure as drawn. Like-named read-outs stand apart in the source and are kept apart here.
Experiments:
HIV-2 (ROD) = experiment: Inhibition of HIV-2 syncytium formation in CEM cells; assay type: cell-based; details: for EC50: Human immunodeficiency virus 2, CCRF-CEM, read-out: EC50 (ug/ml) HIV-2; for HIV-2 % Protection: protection of CEM cells against virus-induced cytopathicity at the concentration in the previous column
Source text: (§1) The cell type used to determine activity of the compounds of the invention herein, i.e., the test compounds, against HIV was human T-lymphoblast (CEM) cells obtained from the American Tissue Cell Culture Collection (Rockville, Md.). HIV-1 (IIIB) was originally obtained from the culture of persistently HIV-1 infected H9 cells and was provided by R. C. Gallo and M. Popovic (National Cancer Institute, National Institutes of Health, Bethesda, Md.). HIV-2 (ROD) was originally obtained from L. M. Montagnier (Pasteur Institute, Paris, France).
(§2) To determine the antiviral activity of the test compounds, CEM cells were suspended at a cell density of approximately 300,000 cells per ml of culture medium and infected with approximately 100 CCID50 (100 CCID50 being the 50% cell culture infective dose) of HIV-1 (IIIB) or HIV-2 (ROD)). Then 100 μl of the infected cell suspensions was added to 200 μl micro titer plate wells containing 100 μl of appropriate serial (5-fold) dilutions of the test compounds. The inhibitory effect of the test compounds on HIV-1 or HIV-2 syncytium formation in CEM cells was examined microscopically on day four post infection.
(§3) In these cases, the percent protection of the cells against virus-induced cytopathicity by the test compounds at the indicated compound concentration in the previous column is given.

Davis strain CMV = experiment: Reduction of CMV-induced cytopathicity in HEL cells; assay type: cell-based, human cytomegalovirus (HCMV); details: for Antiviral % Inhibition Davis strain CMV: estimate of percent protection at the concentration in the previous column; for EC50: read-out: Antiviral EC50 (ug/ml) Davis strain CMV
Description: Confluent HEL cells grown in […] microtiter plates were inoculated with CMV at an input of 100 PFU (plaque forming units) per well. After a one to two hour incubation period, residual virus was removed and the infected cells were further incubated with MEM (Minimal Essential Medium) (supplemented with 2% inactivated Fetal Calf Serum (FCS), […], and 0.3% sodium bicarbonate) containing varying concentrations of the test compounds. Antiviral activity was expressed as EC50 (50% effective concentration), or test compound concentration required to reduce virus-induced cytopathicity after seven days by 50% compared to the untreated control.
In some cases, the compounds had considerable cytotoxicity against HEL cells, which made determination of the EC50 difficult. In these cases, an estimate of the percent protection at the compound concentration indicated in the previous columns is given.

HIV-1 (IIIB) = experiment: microbe, parasite or virus in culture; assay type: cell-based; details: for EC50: Human immunodeficiency virus 1, IIIB, CCRF-CEM, read-out: EC50 (ug/ml) HIV-1; for HIV-1 % Protection: protection of CEM cells against virus-induced cytopathicity at the concentration in the previous column
Source text: as §1, §2, §3

[1] = CEM cells, syncytium formation, day four post infection
[2] = HEL cells, virus-induced cytopathicity after seven days
[3] = Human betaherpesvirus 5, 168 h, HEL cells, virus-induced cytopathicity after seven days
[4] = Human betaherpesvirus 5, HEL, 168 h

Row | EC50 (ug/ml) HIV-2 (HIV-2 (ROD); [1]) | Antiviral EC50 (ug/ml) Davis strain CMV (Davis strain CMV; [2]) | EC50 (ug/ml) HIV-1 (HIV-1 (IIIB); [1]) | EC50 (HIV-2 (ROD); [1]) | EC50 (Davis strain CMV; [3]) | EC50 (HIV-1 (IIIB); [1]) | SMILES | HIV-2 % Protection (HIV-2 (ROD)) | Antiviral % Inhibition Davis strain CMV (Davis strain CMV; HEL cells) | HIV-1 % Protection (HIV-1 (IIIB)) | EC50 (HIV-2 (ROD)) | EC50 (Davis strain CMV; [4]) | EC50 (HIV-1 (IIIB))
1 | 10.0 µg/mL (≈ 38 µM) | 29.0 µg/mL | 13.00 µg/mL (≈ 49.4 µM) | – | – | – | Cc1ccc(CS(=O)(=O)c2cccc[n+]2[O-])cc1 [Compound 11] | – | – | – | – | – | –
2 | – | – | – | > 100 µg/mL | > 50 µg/mL | ≥ 100 µg/mL | Cc1ccc(C)c(C(C)S(=O)(=O)c2cccc[n+]2[O-])c1 (stereo not shown) [Compound 9, 2-(1-[2,5-Dimethylphenyl]ethylsulfonyl)pyridine N-oxide] | 0.0% | 0.0% | 37.5% | – | – | –
3 | >20.00 µg/mL | >50 µg/mL | >20 µg/mL | – | – | – | Cc1ccc[n+]([O-])c1S(=O)(=O)C(C)c1ccccc1 (stereo not shown) [Compound 115] | 0.0% | 40.0% | 0.0% | – | – | –
4 | ≧20 ug/ml | 12.0 µg/mL | 6.00 µg/mL (≈ 20.6 µM) | – | – | – | Cc1ccc(CS(=O)(=O)c2c(C)ccc[n+]2[O-])c(C)c1 [Compound 83] | 37.5% | – | – | – | – | –
5 | 9.0 µg/mL (≈ 25.1 µM) | 10.0 µg/mL | 4.00 µg/mL (≈ 11.2 µM) | – | – | – | COc1ccc(Br)c(CS(=O)(=O)c2cccc[n+]2[O-])c1 [Compound 31] | – | – | – | – | – | –
6 | >20 µg/mL | 7.0 µg/mL | >20 µg/mL | – | – | – | COc1cc(C=C(C#N)Sc2cccc[n+]2[O-])cc(OC)c1OC [Compound 160] | 0.0% | – | 0.0% | – | – | –
7 | ≧20 ug/ml | >5 µg/mL | 9.30 µg/mL (≈ 33.5 µM) | – | – | – | Cc1ccccc1CS(=O)(=O)c1c(C)ccc[n+]1[O-] [Compound 82] | 37.5% | 0.0% | – | – | – | –
8 | 12.0 µg/mL (≈ 43.3 µM) | >50 µg/mL | 20.00 µg/mL (≈ 72.1 µM) | – | – | – | [O-][n+]1ccccc1[S+]([O-])Cc1ccc2c(c1)OCO2 (stereo not shown) [Compound 96] | – | 0.0% | – | – | – | –
9 | 4.0 µg/mL (≈ 15.9 µM) | >50 µg/mL | ≧20 ug/ml | – | – | – | [O-][n+]1ccccc1[S+]([O-])Cc1ccc(F)cc1 (stereo not shown) [Compound 92] | – | 10.0% | 37.5% | – | – | –
10 | 7.5 µg/mL (≈ 28.1 µM) | >20 µg/mL | 6.50 µg/mL (≈ 24.3 µM) | – | – | – | O=S(=O)(Cc1cccc(F)c1)c1cccc[n+]1[O-] [Compound 28] | – | 40.0% | – | – | – | –
11 | >100 µg/mL | 38.0 µg/mL | 9.50 µg/mL (≈ 34.5 µM) | – | – | – | Cc1ccc(C)c(C(C)S(=O)(=O)c2ccccn2)c1 (stereo not shown) [Compound 161] | 0.0% | – | – | – | – | –
12 | 9.0 µg/mL (≈ 34.2 µM) | 16.0 µg/mL | 2.40 µg/mL (≈ 9.11 µM) | – | – | – | Cc1cccc(CS(=O)(=O)c2cccc[n+]2[O-])c1 [Compound 27] | – | – | – | – | – | –
13 | 2.5 µg/mL (≈ 6.06 µM) | 3.7 µg/mL | 2.30 µg/mL (≈ 5.58 µM) | – | – | – | CC(C)c1cc(CS(=O)(=O)c2cccc[n+]2[O-])c(C(C)C)cc1Br [Compound 63] | – | – | – | – | – | –
14 | 4.7 µg/mL (≈ 13.8 µM) | >5 µg/mL | 5.30 µg/mL (≈ 15.5 µM) | – | – | – | O=S(=O)(Cc1ccccc1Oc1ccccc1)c1cccc[n+]1[O-] [Compound 56] | – | 20.0% | – | – | – | –
15 | 15.0 µg/mL (≈ 48.5 µM) | >50 µg/mL | ≧20 ug/ml | – | – | – | COc1ccc(CS(=O)(=O)c2cccc[n+]2[O-])cc1OC [Compound 46] | – | 40.0% | 37.5% | – | – | –
16 | – | – | – | > 100 µg/mL | 34.5 µg/mL (≈ 106 µM) | 0.42 µg/mL (≈ 1.29 µM) | Cc1ccc(C)c(C(Cl)S(=O)(=O)c2cc(C)cc[n+]2[O-])c1 (stereo not shown) [Compound 74, 2-[(2,5-dimethylphenyl)chloromethylsulfonyl]-4-methylpyridine-1-oxide] | 0.0% | – | – | – | – | –
17 | ≧20 ug/ml | 11.0 µg/mL | 12.00 µg/mL (≈ 43.6 µM) | – | – | – | Cc1ccc(C)c(C[S+]([O-])c2c(C)ccc[n+]2[O-])c1 (stereo not shown) [Compound 70] | 37.5% | – | – | – | – | –
18 | – | – | – | – | – | – | Cc1ccc(C)c(C(C)Sc2cc(C)c3ccccc3n2)c1 (stereo not shown) [Compound 162, 2-[[1-(2,5dimethylphenyl)ethyl]thio]-4-methyl-Quinoline] | 0.0% | – | 0.0% | > 0.16 µg/mL | 1.6 µg/mL (≈ 5.2 µM) | > 0.8 µg/mL
19 | >4 µg/mL | 7.0 µg/mL | >4 µg/mL | – | – | – | O=[N+]([O-])c1ccc(CS(=O)(=O)c2cccc[n+]2[O-])cc1 [Compound 14] | 25.0% | – | 0.0% | – | – | –
20 | ≧4 ug/ml | 3.2 µg/mL | ≧4 ug/ml | – | – | – | CC(C)c1ccc(C(C)C)c(CS(=O)(=O)c2cccc[n+]2[O-])c1 [Compound 35] | 37.5% | – | 37.5% | – | – | –
21 | – | – | – | > 100 µg/mL | 50 µg/mL (≈ 164 µM) | 5.5 µg/mL (≈ 18 µM) | Cc1ccc(C)c(C(C)S(=O)(=O)c2ccc(C)c[n+]2[O-])c1 (stereo not shown) [Compound 110, 2-[1-(2,5-Dimethylphenyl)ethylsulfonyl]-5-methylpyridine N-oxide] | 0.0% | – | – | – | – | –
22 | – | – | – | 1.9 µg/mL (≈ 5.78 µM) | > 5 µg/mL | 1.5 µg/mL (≈ 4.56 µM) | O=[N+]([O-])c1cc(CS(=O)(=O)c2cccc[n+]2[O-])ccc1Cl [Compound 64, 2-[[(4-chloro-3-nitrophenyl)methyl]sulfonyl]-pyridine-1-oxide] | – | 10.0% | – | – | – | –
23 | >4 µg/mL | 3.4 µg/mL | >4 µg/mL | – | – | – | Cc1cccc(CSc2cccc[n+]2C)c1.[Cl-] [Compound 142] | 0.0% | – | 0.0% | – | – | –
24 | ≧20 ug/ml | >50 µg/mL | ≧20 ug/ml | – | – | – | COc1cc(CS(=O)(=O)c2cccc[n+]2[O-])cc(OC)c1OC [Compound 50] | 37.5% | 20.0% | 37.5% | – | – | –
25 | – | – | – | 7.5 µg/mL (≈ 28.5 µM) | 12 µg/mL (≈ 45.6 µM) | 11 µg/mL (≈ 41.8 µM) | Cc1ccccc1CS(=O)(=O)c1cccc[n+]1[O-] [Compound 16, 2-(2-Methylphenylmethylsulfonyl)-pyridine N-oxide] | – | – | – | – | – | –
26 | 14.0 µg/mL (≈ 47.7 µM) | 37.0 µg/mL | 1.60 µg/mL (≈ 5.45 µM) | – | – | – | COc1ccc(C)cc1CS(=O)(=O)c1cccc[n+]1[O-] [Compound 30] | – | – | – | – | – | –
27 | 4.7 µg/mL (≈ 16.1 µM) | 8.6 µg/mL | 5.00 µg/mL (≈ 17.2 µM) | – | – | – | Cc1ccc(C)c(CS(=O)(=O)c2cccc[n+]2[O-])c1C [Compound 41] | – | – | – | – | – | –
28 | >4 µg/mL | 3.6 µg/mL | >4 µg/mL | – | – | – | N#CC(=Cc1ccccc1)Sc1cccc[n+]1[O-] [Compound 158] | 0.0% | – | 0.0% | – | – | –
29 | >0.8 µg/mL | 11.0 µg/mL | 0.70 µg/mL (≈ 2.25 µM) | – | – | – | Cc1ccc(C)c(CS(=O)(=O)c2cccc(Cl)[n+]2[O-])c1 [Compound 77] | 0.0% | – | – | – | – | –
30 | ≧4 ug/ml | >50 µg/mL | ≧4 ug/ml | – | – | – | Cc1ccc2ccccc2c1CS(=O)(=O)c1cccc[n+]1[O-] [Compound 43] | 37.5% | 20.0% | 37.5% | – | – | –

Row | SMILES | EC50 (ug/ml) HIV-2 (HIV-2 (ROD); [1]) | Antiviral EC50 (ug/ml) Davis strain CMV (Davis strain CMV; [2]) | EC50 (ug/ml) HIV-1 (HIV-1 (IIIB); [1]) | EC50 (HIV-2 (ROD); [1]) | EC50 (Davis strain CMV; [3]) | EC50 (HIV-1 (IIIB); [1]) | HIV-2 % Protection (HIV-2 (ROD)) | Antiviral % Inhibition Davis strain CMV (Davis strain CMV; HEL cells) | HIV-1 % Protection (HIV-1 (IIIB)) | EC50 (HIV-2 (ROD)) | EC50 (Davis strain CMV; [4]) | EC50 (HIV-1 (IIIB))
31 | Oc1cccnc1SCc1ccccc1 [Compound 140, 2-[(Phenylmethyl)thio]-3-pyridinol] | – | – | – | – | – | 2 µg/mL (≈ 9.2 µM) | – | – | – | 12 µg/mL (≈ 55.2 µM) | 12 µg/mL (≈ 55.2 µM) | –
